pIC50: −log10 of the molar value. Activity calls are given as the source filed them. The rule behind the calls is not given here.
Key:
[1] = test system: Protein cereblon/Epidermal growth factor receptor (Homo sapiens), P00533+Q96SW2 [L858R,T790M,C797S]; experiment: PROTAC activity at CRBN/EGFR L858R/T790M/C797S mutant in human H1975-TM cells assessed as induction of EGFR degradation by measuring remaining activity at 100 nM preincubated for 24 hrs followed by compound washout and measured after 3 hrs by Western blot analysis (reference value: 100%); assay type: cell-based
[2] = test system: Protein cereblon/Epidermal growth factor receptor (Homo sapiens), P00533+Q96SW2 [L858R,T790M,C797S]; experiment: (§1) PROTAC activity at CRBN/EGFR L858R/T790M/C797S mutant in human H1975-TM cells assessed as induction of EGFR degradation by measuring remaining activity at 100 nM preincubated for 24 hrs followed by compound washout and measured after 24 hrs by Western blot analysis (reference value: 100%); assay type: cell-based
[3] = MRT (0 to infinity) in male Sprague-Dawley rat at 50 mg/kg, po measured after 24 hrs by LC-MS/MS analysis; assay type: ADME, organism-based; details: in vivo
[4] = test system: Protein cereblon/Epidermal growth factor receptor (Homo sapiens), P00533+Q96SW2 [L858R,T790M,C797S]; experiment: PROTAC activity at CRBN/EGFR L858R/T790M/C797S mutant in human H1975-TM cells assessed as induction of EGFR degradation by measuring remaining activity at 50 nM incubated for 24 hrs by Western blot analysis (reference value: 100%); assay type: cell-based
[5] = target: Protein cereblon/Epidermal growth factor receptor (Homo sapiens, UniProt P00533+Q96SW2); experiment: PROTAC activity at CRBN/wildtype EGFR in human A549 cells assessed as induction of EGFR degradation incubated for 24 hrs by Western blot analysis; assay type: cell-based
Protein cereblon/Epidermal growth factor receptor, sequence (P00533 whole entry): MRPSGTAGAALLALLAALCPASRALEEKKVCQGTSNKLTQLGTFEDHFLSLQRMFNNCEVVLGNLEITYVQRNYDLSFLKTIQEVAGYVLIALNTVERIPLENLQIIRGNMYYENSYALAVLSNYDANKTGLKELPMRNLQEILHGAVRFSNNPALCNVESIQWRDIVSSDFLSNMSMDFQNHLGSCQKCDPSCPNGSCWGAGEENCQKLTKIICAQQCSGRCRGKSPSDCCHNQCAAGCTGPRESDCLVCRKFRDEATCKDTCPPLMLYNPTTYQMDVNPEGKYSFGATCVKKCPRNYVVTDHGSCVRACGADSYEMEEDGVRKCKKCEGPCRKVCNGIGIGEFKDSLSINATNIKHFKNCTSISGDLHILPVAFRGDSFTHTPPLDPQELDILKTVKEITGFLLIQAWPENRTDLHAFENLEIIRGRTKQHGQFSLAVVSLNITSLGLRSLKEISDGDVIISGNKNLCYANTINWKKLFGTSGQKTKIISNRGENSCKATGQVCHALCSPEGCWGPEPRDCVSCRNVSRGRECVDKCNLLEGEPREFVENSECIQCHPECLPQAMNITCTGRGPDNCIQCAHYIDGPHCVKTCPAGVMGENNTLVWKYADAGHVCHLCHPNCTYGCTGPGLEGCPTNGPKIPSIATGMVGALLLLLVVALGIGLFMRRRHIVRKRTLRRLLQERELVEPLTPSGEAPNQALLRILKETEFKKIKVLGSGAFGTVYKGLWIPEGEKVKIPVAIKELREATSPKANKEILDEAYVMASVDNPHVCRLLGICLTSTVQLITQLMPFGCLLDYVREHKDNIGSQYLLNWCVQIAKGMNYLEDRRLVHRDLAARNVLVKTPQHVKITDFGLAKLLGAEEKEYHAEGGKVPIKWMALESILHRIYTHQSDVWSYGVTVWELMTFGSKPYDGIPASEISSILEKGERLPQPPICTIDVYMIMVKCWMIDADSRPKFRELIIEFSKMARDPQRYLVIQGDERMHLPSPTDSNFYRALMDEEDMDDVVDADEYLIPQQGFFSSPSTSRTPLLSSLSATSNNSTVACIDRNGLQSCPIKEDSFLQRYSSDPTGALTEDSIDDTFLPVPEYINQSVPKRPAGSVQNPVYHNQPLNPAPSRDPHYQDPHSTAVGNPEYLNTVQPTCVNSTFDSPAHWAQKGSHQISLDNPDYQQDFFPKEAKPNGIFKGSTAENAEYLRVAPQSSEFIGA
Protein cereblon/Epidermal growth factor receptor, sequence (Q96SW2 whole entry): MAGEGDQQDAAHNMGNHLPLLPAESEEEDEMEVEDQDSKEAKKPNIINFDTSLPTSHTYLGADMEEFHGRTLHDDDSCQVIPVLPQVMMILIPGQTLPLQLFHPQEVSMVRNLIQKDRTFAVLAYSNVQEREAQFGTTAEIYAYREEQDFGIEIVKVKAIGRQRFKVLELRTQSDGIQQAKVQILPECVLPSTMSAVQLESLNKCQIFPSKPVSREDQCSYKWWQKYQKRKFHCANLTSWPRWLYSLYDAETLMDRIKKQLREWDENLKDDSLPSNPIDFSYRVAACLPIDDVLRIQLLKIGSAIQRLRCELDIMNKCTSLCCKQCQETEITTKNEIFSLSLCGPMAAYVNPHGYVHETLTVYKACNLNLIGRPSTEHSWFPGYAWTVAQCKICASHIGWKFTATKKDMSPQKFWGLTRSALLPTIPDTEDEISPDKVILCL

[6] = Cmax in male Sprague-Dawley rat at 50 mg/kg, po measured after 24 hrs by LC-MS/MS analysis; assay type: ADME, organism-based; details: in vivo
[7] = AUC (0 to infinity) in male Sprague-Dawley rat at 5 mg/kg, iv measured after 24 hrs by LC-MS/MS analysis; assay type: ADME, organism-based; details: in vivo
[8] = target: Cyclin-dependent kinase 16 (Homo sapiens) (UniProt Q00536); experiment: Induction of CDK16 degradation in human H1975-TM cells at 50 nM incubated for 24 hrs; assay type: cell-based
Cyclin-dependent kinase 16 (Homo sapiens), sequence (Q00536 whole entry): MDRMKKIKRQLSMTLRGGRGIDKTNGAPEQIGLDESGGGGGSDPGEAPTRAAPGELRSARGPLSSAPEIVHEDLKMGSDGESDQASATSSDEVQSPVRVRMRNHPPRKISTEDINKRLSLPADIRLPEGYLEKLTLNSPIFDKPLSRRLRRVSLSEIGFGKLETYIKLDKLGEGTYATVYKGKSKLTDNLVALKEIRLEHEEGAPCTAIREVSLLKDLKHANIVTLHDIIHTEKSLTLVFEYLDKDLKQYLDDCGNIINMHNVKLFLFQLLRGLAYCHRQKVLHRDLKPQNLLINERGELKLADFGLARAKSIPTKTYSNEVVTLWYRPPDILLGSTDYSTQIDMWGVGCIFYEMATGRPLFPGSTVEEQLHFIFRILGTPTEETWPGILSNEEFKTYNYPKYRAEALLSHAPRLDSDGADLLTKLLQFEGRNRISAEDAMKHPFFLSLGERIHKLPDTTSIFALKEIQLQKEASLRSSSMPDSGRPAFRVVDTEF

[9] = test system: Protein cereblon/Epidermal growth factor receptor (Homo sapiens), P00533+Q96SW2 [L858R,T790M,C797S]; experiment: as §1, with “at 50” for “at 100”, “preincubated with lenalidomide” for “preincubated”, “for 6” for “for 24”, “compound addition” for “compound washout”; assay type: cell-based
[10] = Half-life in male Sprague-Dawley rat at 50 mg/kg, po measured after 24 hrs by LC-MS/MS analysis; assay type: ADME, organism-based; details: in vivo
[11] = test system: H1975-TM; experiment: Inhibition of colony formation in human H1975-TM cells harboring EGFR L858R/T790M/C797S mutant at 3.7 to 100 nM incubated for 14 days by crystal violet staining based analysis; assay type: functional, cell-based; details: dose 3.7-100 nM, time 14.0 day
[12] = test system: A549; experiment: Antiproliferative activity against human A549 cells harboring wildtype EGFR assessed as inhibition of cell proliferation incubated for 72 hrs by CCK8 assay; assay type: functional, cell-based; details: A549, 72 h
[13] = test system: Protein cereblon/Epidermal growth factor receptor (Homo sapiens), P00533+Q96SW2 [L858R,T790M,C797S]; experiment: PROTAC activity at CRBN/EGFR L858R/T790M/C797S mutant in human H1975-TM cells assessed as induction of EGFR degradation by measuring remaining activity at 100 nM incubated for 12 hrs by Western blot analysis (reference value: 100%); assay type: cell-based
[14] = Cmax in male Sprague-Dawley rat at 5 mg/kg, iv measured after 24 hrs by LC-MS/MS analysis; assay type: ADME, organism-based; details: in vivo
[15] = Oral bioavailability in Sprague-Dawley rat at 50 mg/kg measured after 24 hrs by LC-MS/MS analysis; assay type: ADME, organism-based; details: in vivo
[16] = target: Probable U3 small nucleolar RNA-associated protein 11 (Homo sapiens) (UniProt Q9Y3A2); experiment: Induction of UTP11 degradation in human H1975-TM cells at 50 nM incubated for 24 hrs; assay type: cell-based
Probable U3 small nucleolar RNA-associated protein 11 (Homo sapiens), sequence (Q9Y3A2 whole entry): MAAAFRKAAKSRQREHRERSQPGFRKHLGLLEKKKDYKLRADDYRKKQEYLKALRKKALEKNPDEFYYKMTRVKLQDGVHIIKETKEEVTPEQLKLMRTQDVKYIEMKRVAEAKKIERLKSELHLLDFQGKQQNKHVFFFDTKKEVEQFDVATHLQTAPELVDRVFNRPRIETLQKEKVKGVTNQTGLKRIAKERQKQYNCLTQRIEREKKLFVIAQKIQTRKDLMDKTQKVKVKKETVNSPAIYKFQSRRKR

[17] = test system: Protein cereblon/Epidermal growth factor receptor (Homo sapiens), P00533+Q96SW2 [L858R,T790M,C797S]; experiment: PROTAC activity at CRBN/EGFR L858R/T790M/C797S mutant in human H1975-TM cells assessed as induction of EGFR degradation by measuring remaining activity at 100 nM incubated for 6 hrs by Western blot analysis (reference value: 100%); assay type: cell-based
[18] = Potency index, ratio of brigatinib IC50 to test compound IC50 for antiproliferative activity against human […] cells harboring EGFR L858R/T790M/C797S mutant assessed as inhibition of cell growth incubated for 72 hrs by CCK-8 assay; assay type: functional, H1975-TM

Compound `CCS(=O)(=O)n1cc(-c2nc(Nc3ccc(N4CCN(CCCCCCC(=O)Nc5cccc6c5CN(C5CCC(=O)NC5=O)C6=O)CC4)cc3)ncc2C(F)(F)F)c2ccccc21` (stereo not drawn) has an Activity [1] of 8.5%, an Activity [2] of 52.9% and an MRT inf [3] of 21.4 h. For the same compound, the Activity [4] was 5.8%, the DC50 [5] was > 300 nM and the Cmax [6] was 57.8 ng/mL. The AUC(0-inf) [7] was 1800 ng·h/mL, the Activity [8] was “Active” and the Activity [9] was 56.4%. For the same compound, the half-life [10] was 10.9 h, the inhibition [11] was “Active” and the pIC50 [12] was 7.01. The Activity [13] was 44.5%, the Cmax [14] was 4600 ng/mL and the bioavailability [15] was 4.2%. For the same compound, the Activity [16] was “Active”, the Activity [17] was 65.9% and the “Ratio IC50” value [18] was 55.

Source: ChEMBL document CHEMBL5543167, “Design, Synthesis, and Biological Evaluation of Novel EGFR PROTACs Targeting C797S Mutation” (J Med Chem, 2024)
